From US20160278348A1, “METHOD FOR CONTROLLING WATER MOLDS IN AQUACULTURE WATER” (SUKEGAWA CHEMICALS CO., LTD., priority 2014, published 2016)

What was measured:
[1] = tested on: water molds (genus Saprolegnia); experiment: Experiment 1: water mold culture on hempseed cotyledons, sensitized time 30 min; format: cell-based; conditions: 100 ppm; sensitized 30 min
Method: Based on “Testing Methods for City Water (2001 edition) by Japan Water Works Association, VIII Microbial Tests, 4.4.2.2 Water Mold Culture Method”, one hempseed cotyledon with water molds and 300 mL of sterilized tap water were placed in a sterilized 500-mL conical flask, and then 5 sterilized hempseed cotyledons were placed in the conical flask and cultured at ordinary temperature. The water molds (genus Saprolegnia) were collected from a hatchery in a fish farm for salmons and trout. […] The water in fee conical flask was diluted with sterilized tap water to prepare a zoospore suspension containing 10 to 12 zoospores of the water molds per 100 μL. It is to be noted that the tap water used was city water (pH 6.0) in Kobe.
The zoospore suspension was added to a sterilized tube (5 mL capacity) containing 3 hempseed cotyledons and stirred, and was then allowed to stand at room temperature for 3 days. After 3 days, 900 μL of a chemical solution was added to the sterilized tube, and the resulting mixture was stirred and then allowed to stand for 30 minutes for sensitization. […]
Based on the results of the observation, the minimum killing concentration of an active ingredient contained in the chemical solution was determined. […]

[2] = tested on: water molds (genus Saprolegnia); experiment: Experiment 2: water mold culture on hempseed cotyledons, sensitized time 60 min; format: cell-based

For `O=[N+]([O-])C(Br)(CO)CO` [bronopol], the Haze [1] was “no effect”, the Zoospores [1] was “effective” and the Haze ([2]; 100 ppm, sensitized 60 min) was “no effect”. For the same compound, the Zoospores ([2]; 100 ppm, sensitized 60 min) was “effective” and the Haze ([2]; 1200 ppm, sensitized 60 min) was “could not be prevented”.
Compound sodium chlorite has a minimum killing concentration ([2]; sensitized time 60 minutes, as chlorine dioxide) of 2.5 ppm.
